We go through six molecules from patent US20160113911A1, “METHODS AND COMPOSITIONS FOR THE TREATMENT OF CANCER” (THE GENERAL HOSPITAL CORPORATION, priority 2013, published 2016).

The subject of series [1] is RPE cells. Briefly: Apoptosis by annexin V staining. The format is cell-based, human. The settings on record: RPE CTRL and KDM4A overexpressing cells.
In series [2] the test system is 1q12h copy gain in RPE cells. Briefly: FISH for site-specific copy gain. Type of series: cell-based, human. The conditions noted are these: RPE cells. As for the experimental part: FISH was performed as described in (Manning et al., 2010). Probes for 1q12h, 1q telomere, and chromosome 2, 6, 8, and X alpha satellite were purchased from Rainbow Scientific. Probes for 1q12 (RP11-80L2), Xq13.2 (RP11-451A22), Xq13.1 (RP11-177A4) were purchased as BAC clones from Children's Hospital Oakland Research Institute (CHORI BacPac) FISH verified clone repository. Oligonucleotide probes for 1q21.2 (BCL9) and 1q23.3 were purchased from Agilent (SureFISH). BACS were prepared utilizing PureLink HiPure Plasmid Filter Maxiprep kit (Life Technologies) using the recommended modified wash buffer. Probes were nick translated (Abbot Molecular Kit) in the presence of fluorescently labeled dTTP (Enzo Life Science). Images of multiple planes of fields of nuclei were acquired on an Olympus IX81 Spinning Disk Microscope and analyzed using Slidebook 5.0 software. We used a conservative scoring metric for copy gain. Any foci that were touching were scored as a single foci to prevent increased numbers due to normally replicated foci. For RPE cells, copy gain was scored as any cell with 3 or more distinct foci. For 293T cells, copy gain was scored for any cell with 5 or more distinct foci. For RPE cells each experiment includes at least one replicate from the two different polyclonal stable cell preparations. At least 100 cells for each replicate were scored for all experiments except analysis of single cell clones.
Cells were plated onto culture dishes and allowed to adhere for 20-24 hrs in normoxia (5% CO2, 21% O2, and 74% N2). For hypoxic treatment, cells were maintained in a HERA Cell 150™ incubator (Thermo Scientific) flushed with 5% CO2, 1% O2 or 4% O2, and balanced with N2 for the duration of the experiment. Incubator calibrations were carried out by Bianchi Associates Calibrations/Verifications.
To release, cells were washed twice with culture medium pre-conditioned in normoxia or hypoxia, and supplied with fresh pre-conditioned media. For JIB-04 treatment, normoxic cells were pre-treated with 62.5 nM JIB-04 (Xcessbio) for 24 hrs, then treated again with JIB-04 and either transferred to 1% O2 or maintained in normoxia for an additional 24 hrs. Succinate was administered at a final concentration of 2 mM and cells were either maintained in normoxia for 72 hrs or maintained in normoxia for 48 hrs prior to being transferred to 1% O2 for 24 hrs.
FISH was performed as described in (Black et al., 2013; Manning et al., 2010). Probes for 1q12h, 1q telomere, chromosome 8 centromere (alpha satellite), and X centromere (alpha satellite) were purchased from Rainbow Scientific. Probes for Xq13.1 (RP11-177A4), Zebrafish BCL9 (CH73-15J19) and Zebrafish IGBP1 (CH73-223D24) were purchased as BAC clones from Children's Hospital Oakland Research Institute (CHORI BacPac) clone repository. Probes for 1q21.2 (BCL9) and 1q23.3 were purchased from Agilent (SureFISH).
FISH was performed as described in (Black et al., 2013; Manning et al., 2010). Probes for 1q12h, 1q telomere, chromosome 8 centromere (alpha satellite), and X centromere (alpha satellite) were purchased from Rainbow Scientific. Probes for Xq13.1 (RP11-177A4), Zebrafish BCL9 (CH73-15J19) and Zebrafish IGBP1 (CH73-223D24) were purchased as BAC clones from Children's Hospital Oakland Research Institute (CHORI BacPac) clone repository. Probes for 1q21.2 (BCL9) and 1q23.3 were purchased from Agilent (SureFISH). BACS were prepared utilizing PureLink HiPure™ Plasmid Filter Maxiprep kit (Life Technologies) using the recommended modified wash buffer. Probes were nick translated (Abbot Molecular Kit) in the presence of fluorescently labeled dTTP (Enzo Life Science). Images of multiple planes of fields of nuclei were acquired on an Olympus IX81 T Spinning Disk Microscope and analyzed using Slidebook™ 5.0 software. A conservative scoring metric was used for copy gain. Any foci that were touching were scored as a single copy to prevent increased numbers due to normally replicated foci.

The next series concerns KDM4A. Briefly: KDM4A protein levels by western blot. The conditions noted are these: RPE cells. The format is cell-based, human. As for the experimental part:
Western blot analyses were performed according to (Black et al., 2010).
Western blots were performed as in (Black et al., 2010). Briefly, adherent cells were either scraped directly into PBS, or washed with PBS, trypsinized and collected by centrifuging at 2,000 RPM for 5 minutes. For preparation of whole-cell lysates, cell pellets were washed once in ice-cold PBS and resuspended in RIPA lysis buffer [50 mM Tris pH 7.4, 150 mM NaCl, 0.25% Sodium Deoxycholate, 1% NP40, 1 mM EDTA, 10% Glycerol] supplemented with complete protease inhibitor and PhosSTOP™ phosphatase inhibitor cocktails (Roche). Cells were lysed on ice for 15 minutes and immediately frozen at −80° C. for 10 min. Lysates were subsequently sonicated at 70% amplitude for 15 minutes in a QSonica Q800R™ and cleared of cell debris by centrifuging at 12,000 RPM for 15 minutes, before being analyzed by western blotting. For HIF1α expression, adherent cells were washed twice with ice-cold PBS and scraped directly in warmed 1× Laemmli buffer. Samples were sonicated at 70% amplitude for 15 minutes and boiled immediately prior to western blotting.
For orientation: Immunoblotting shows a protein as a band on a membrane.

The test system of series [3] is RPE cells. Briefly: Flow cytometry cell cycle analysis. The format is cell-based, human. The protocol:
Asynchronously growing, or G1/S arrested cells were prepared and fixed as in (Black et al., 2010). Cells were stained with 10 μM EdU for 1 hour prior to collection. Cell cycle was analyzed by PI staining or EdU incorporation using Click-IT EdU™ Flow Cytometry Assay Kit (Life Technologies). Flow cytometry of CD4+ T cells and cell cycle distribution were analyzed using a BD FACS ARIA II™.
(Flow cytometry measures light scatter and fluorescence of single cells or particles in a stream.)

For series [4], the system named is cells depleted of KDM4A (shA10). Briefly: Rapamycin sensitivity of KDM4A-depleted (shA10) cells transfected with wild-type or mutant KDM4A. Type of series: cell-based. The settings on record: shA10 depletion background. The protocol:
Cells were depleted of KDM4A (shA10) and transfected with wild-type (WT) or mutant KDM4A. […] This differed from WT expression in the depletion background, which was less sensitive. […]
The effect of KMD4A mutations on drug sensitivity was examined by depleting cells of KDM4A (shA10) and then transfecting with wild-type or mutant KDM4A. The sensitivity of the cells to rapamycin was then determined. […] This differed from WT expression in the depletion background, which was less sensitive.

Another series has as its system HEK 293T cells. Briefly: Monitored cell proliferation assay (xCELLigence growth curves, doubling time). The format is cell-based, human. The protocol:
Seventy two hours post transfection 1×10^4 HEK 293T cells were seeded per well of a 96 well plate, and then treated after 24h. Cell proliferation was monitored with an xCELLigence system (Roche) (Vistejnova et al., 2009).

A further series concerns H3K36me3. Briefly: H3K36 demethylase activity of KDM4A variants in transfected cells (immunofluorescence). Type of series: cell-based. Also on record: key: + indicates active; − indicates inactive; +/− indicates partial acitivty. The settings on record: KDM4A mutations.
The subject of the next series is H3K9me3. Put plainly: H3K9 demethylase activity of KDM4 variants in transfected cells. Also noted: key: + indicates active; − indicates inactive; +/− indicates partial acitivty. Type of series: cell-based. The conditions noted are these: KDM4A mutations.

Changes are numbered by the printed parent chain. In names and notes the source's numbering stands.

Take `NC(=O)NO` [HU, hydroxyurea]: in the series with RPE cells [1], the “apoptosis (percent Annexin V positive cells)” value is “no observed increased apoptosis”.

Turning to `O=C(O)CCC(=O)O` [succinate, reference compound], in series [2] (1% O2 24 hours, JIB-04 62.5 nM or 2 mM succinate pre-treatment, or overexpression), the “hypoxia-dependent copy gain of 1q12h” value is “sufficient to abrogate hypoxia-dependent copy gain of 1q12h”. Also, in series [2] (4% oxygen, transfection or 2 mM succinate for 24 hours), the “hypoxia-induced 1q12h copy number gains” value is recorded as “antagonized”. The “KDM4A protein levels in hypoxia” value with KDM4A (1% O2) was “did not alter KDM4A stabilization”. For the same molecule, the cell cycle profile result with RPE cells [3] (normoxia and hypoxia) was “did not alter KDM4A stabilization or cell cycle progression”.

For the molecule Tunicamycin, the “site-specific copy gain (1q12h and 1q21.2) under stress” value in series [2] (24 hours, 2 μg/ml Tunicamycin) is reported as “did not promote site-specific copy gain”. Further, the “KDM4A protein levels under stress” value with KDM4A (24 hours) is recorded as “significantly increased KDM4A levels”. The “cell cycle profile under stress” value in the series on RPE cells [3] (24 hours) is on record as “resulted in altered cell cycle profiles”.

B1: KDM4A WT: wild type KDM4A (major allele E482) (protein)
chain: MASESETLNPSARIMTFYPTMEEFRNFSRYIAYIESQGAHRAGLAKVVPPKEWKPRASYDDIDDLVIPAPIQQLVTGQSGLFTQYNIQKKAMTVREFRKIANSDKYCTPRYSEFEELERKYWKNLTFNPPIYGADVNGTLYEKHVDEWNIGRLRTILDLVEKESGITIEGVNTPYLYFGMWKTSFAWHTEDMDLYSINYLHFGEPKSWYSVPPEHGKRLERLAKGFFPGSAQSCEAFLRHKMTLISPLMLKKYGIPFDKVTQEAGEFMITFPYGYHAGFNHGFNCAESTNFATRRWIEYGKQAVLCSCRKDMVKISMDVFVRKFQPERYKLWKAGKDNTVIDHTLPTPEAAEFLKESELPPRAGNEEECPEEDMEGVEDGEEGDLKTSLAKHRIGTKRHRVCLEIPQEVSQSELFPKEDLSSEQYEMTECPAALAPVRPTHSSVRQVEDGLTFPDYSDSTEVKFEELKNVKLEEEDEEEEQEAAALDLSVNPASVGGRLVFSGSKKKSSSSLGSGSSRDSISSDSETSEPLSCRAQGQTGVLTVHSYAKGDGRVTVGEPCTRKKGSAARSFSERELAEVADEYMFSLEENKKSKGRRQPLSKLPRHHPLVLQECVSDDETSEQLTPEEEAEETEAWAKPLSQLWQNRPPNFEAEKEFNETMAQQAPHCAVCMIFQTYHQVEFGGFNQNCGNASDLAPQKQRTKPLIPEMCFTSTGCSTDINLSTPYLEEDGTSILVSCKKCSVRVHASCYGVPPAKASEDWMCSRCSANALEEDCCLCSLRGGALQRANDDRWVHVSCAVAILEARFVNIAERSPVDVSKIPLPRFKLKCIFCKKRRKRTAGCCVQCSHGRCPTAFHVSCAQAAGVMMQPDDWPFVVFITCFRHKIPNLERAKGALQSITAGQKVISKHKNGRFYQCEVVRLTTETFYEVNFDDGSFSDNLYPEDIVSQDCLQFGPPAEGEVVQVRWTDGQVYGAKFVASHPIQMYQVEFEDGSQLVVKRDDVYTLDEELPKRVKSRLSVASDMRFNEIFTEKEVKQEKKRQRVINSRYREDYIEPALYRAIME
modifications: left off: large carriers
As to B1, in series [4], the “sensitivity of cells to rapamycin” value is given as “reduced the sensitivity of the cells”. Besides, the “rescue of increased sensitivity to AZD8055 due to KDM4A depletion (doubling time 5h-35h)” value in the series with HEK 293T cells (shRNA KDM4A plus non targetable GFP-KDM4A constructs) is reported as “rescues”. The “rescue of increased sensitivity to Rapamycin of KDM4A depleted cells (doubling time 5h-35h)” value in the series with HEK 293T cells (shRNA KDM4A plus shRNA-resistant GFP-KDM4A constructs) is “rescues”.

B2: H188A: catalytic mutant of KDM4A (protein, UniProt O75164 2-1064, looked up, variant H188A)
Lysine-specific demethylase 4A: ASESETLNPSARIMTFYPTMEEFRNFSRYIAYIESQGAHRAGLAKVVPPKEWKPRASYDDIDDLVIPAPIQQLVTGQSGLFTQYNIQKKAMTVREFRKIANSDKYCTPRYSEFEELERKYWKNLTFNPPIYGADVNGTLYEKHVDEWNIGRLRTILDLVEKESGITIEGVNTPYLYFGMWKTSFAWATEDMDLYSINYLHFGEPKSWYSVPPEHGKRLERLAKGFFPGSAQSCEAFLRHKMTLISPLMLKKYGIPFDKVTQEAGEFMITFPYGYHAGFNHGFNCAESTNFATRRWIEYGKQAVLCSCRKDMVKISMDVFVRKFQPERYKLWKAGKDNTVIDHTLPTPEAAEFLKESELPPRAGNEEECPEEDMEGVEDGEEGDLKTSLAKHRIGTKRHRVCLEIPQEVSQSELFPKEDLSSEQYEMTECPAALAPVRPTHSSVRQVEDGLTFPDYSDSTEVKFEELKNVKLEEEDEEEEQAAAALDLSVNPASVGGRLVFSGSKKKSSSSLGSGSSRDSISSDSETSEPLSCRAQGQTGVLTVHSYAKGDGRVTVGEPCTRKKGSAARSFSERELAEVADEYMFSLEENKKSKGRRQPLSKLPRHHPLVLQECVSDDETSEQLTPEEEAEETEAWAKPLSQLWQNRPPNFEAEKEFNETMAQQAPHCAVCMIFQTYHQVEFGGFNQNCGNASDLAPQKQRTKPLIPEMCFTSTGCSTDINLSTPYLEEDGTSILVSCKKCSVRVHASCYGVPPAKASEDWMCSRCSANALEEDCCLCSLRGGALQRANDDRWVHVSCAVAILEARFVNIAERSPVDVSKIPLPRFKLKCIFCKKRRKRTAGCCVQCSHGRCPTAFHVSCAQAAGVMMQPDDWPFVVFITCFRHKIPNLERAKGALQSITAGQKVISKHKNGRFYQCEVVRLTTETFYEVNFDDGSFSDNLYPEDIVSQDCLQFGPPAEGEVVQVRWTDGQVYGAKFVASHPIQMYQVEFEDGSQLVVKRDDVYTLDEELPKRVKSRLSVASDMRFNEIFTEKEVKQEKKRQRVINSRYREDYIEPALYRAIME
For B2, in series [4], the “sensitivity of cells to rapamycin” value is “did not reduce drug sensitivity”.

B3: 2A-R1025C*: KDM4A mutation (protein, UniProt O75164 2-1064, looked up, variant R1025C)
Lysine-specific demethylase 4A: B2 Lysine-specific demethylase 4A with A187H, R1024C
In the case of B3, the “sensitivity of cells to rapamycin” value in series [4] is “equally as sensitive as KDM4A/JMJD2A depletion”. In the series on H3K36me3, the “H3k36 Demethylase Activity” value is given as “+”. Further, in the series on H3K9me3, the “H3k9 Demethylase Activity” value is listed as “+”.
